Holding throughout (format): biochemical
Test [1] deals with T1, Human Tyk2 kinase domain (Homo sapiens, UniProt P29597).
T1 construct: comprising amino acids 886 to 1187 with 10 additional histidine residues; 10xHis (histidine tag) (C, cleaved yes); made in house
T1 sequence (P29597 886-1187): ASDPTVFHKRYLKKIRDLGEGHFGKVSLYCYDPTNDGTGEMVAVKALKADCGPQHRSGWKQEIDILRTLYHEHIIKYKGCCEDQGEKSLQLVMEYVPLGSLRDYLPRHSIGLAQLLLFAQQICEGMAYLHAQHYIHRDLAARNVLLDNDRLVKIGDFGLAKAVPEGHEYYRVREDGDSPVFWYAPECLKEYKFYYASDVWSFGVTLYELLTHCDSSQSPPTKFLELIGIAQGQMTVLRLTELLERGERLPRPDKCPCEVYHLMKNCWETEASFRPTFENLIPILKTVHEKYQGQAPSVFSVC
The test can be described thus: Tyk2 Inhibition Assay (Omnia kinase fluorescence peptide substrate assay). The following applies: averaged IC50 ranges; assay of Example A; 10 μM (Km app) or 1 mM ATP, 2 nM Tyk2. The method, boiled down: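 2 nM His-tag-cleaved kinase domain (aa 886–1187) with 8 μM Omnia Y12 peptide, 10 μM (Km app) or 1 mM ATP, pH 7.4 HEPES/10 mM MgCl2, 2% DMSO. Fluorescence (ex 360/em 485 nm) every 50 s for 45 min; IC50 from 4-parameter fit of POC, top dose 10 μM.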

Test [2] concerns the target T2, JAK1 (Homo sapiens, UniProt P23458).
T2 construct: purchased Invitrogen Corporation, Carlsbad, Calif; PV4775
The test can be described thus: JAK1 Inhibition Assay (Omnia kinase fluorescence peptide substrate assay). The following applies: averaged IC50 ranges; assay of Example B; 40 μM (Km app) or 1 mM ATP, 15 nM JAK1.

Test [3] concerns the target T3, JAK2 (Homo sapiens, UniProt O60674).
T3 construct: purchased Invitrogen Corporation, Carlsbad, Calif; PV4288
The test can be described thus: JAK2 Inhibition Assay (Omnia kinase fluorescence peptide substrate assay). The following applies: averaged IC50 ranges; assay of Example C; 25 μM (Km app) or 1 mM ATP, 5 nM JAK2. The method, boiled down: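 5 nM JAK2 phosphorylated 10 μM Omnia Y7 peptide with ATP at 25 μM (Km app) or 1 mM, in 25 mM HEPES pH 7.4, 10 mM MgCl2, 0.01% Triton X-100, 1 mM DTT, 2% DMSO. Fluorescence (360/485 nm) was read every 50 s for 45 min. 10-point 3-fold series from 10 μM; POC versus uninhibited and background controls, 4-parameter logistic IC50.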

In test [4] the target is T4, JAK3 (Homo sapiens, UniProt P52333).
T4 construct: purchased Invitrogen Corporation, Carlsbad, Calif; PV4080
T4 sequence (P52333 1-1124): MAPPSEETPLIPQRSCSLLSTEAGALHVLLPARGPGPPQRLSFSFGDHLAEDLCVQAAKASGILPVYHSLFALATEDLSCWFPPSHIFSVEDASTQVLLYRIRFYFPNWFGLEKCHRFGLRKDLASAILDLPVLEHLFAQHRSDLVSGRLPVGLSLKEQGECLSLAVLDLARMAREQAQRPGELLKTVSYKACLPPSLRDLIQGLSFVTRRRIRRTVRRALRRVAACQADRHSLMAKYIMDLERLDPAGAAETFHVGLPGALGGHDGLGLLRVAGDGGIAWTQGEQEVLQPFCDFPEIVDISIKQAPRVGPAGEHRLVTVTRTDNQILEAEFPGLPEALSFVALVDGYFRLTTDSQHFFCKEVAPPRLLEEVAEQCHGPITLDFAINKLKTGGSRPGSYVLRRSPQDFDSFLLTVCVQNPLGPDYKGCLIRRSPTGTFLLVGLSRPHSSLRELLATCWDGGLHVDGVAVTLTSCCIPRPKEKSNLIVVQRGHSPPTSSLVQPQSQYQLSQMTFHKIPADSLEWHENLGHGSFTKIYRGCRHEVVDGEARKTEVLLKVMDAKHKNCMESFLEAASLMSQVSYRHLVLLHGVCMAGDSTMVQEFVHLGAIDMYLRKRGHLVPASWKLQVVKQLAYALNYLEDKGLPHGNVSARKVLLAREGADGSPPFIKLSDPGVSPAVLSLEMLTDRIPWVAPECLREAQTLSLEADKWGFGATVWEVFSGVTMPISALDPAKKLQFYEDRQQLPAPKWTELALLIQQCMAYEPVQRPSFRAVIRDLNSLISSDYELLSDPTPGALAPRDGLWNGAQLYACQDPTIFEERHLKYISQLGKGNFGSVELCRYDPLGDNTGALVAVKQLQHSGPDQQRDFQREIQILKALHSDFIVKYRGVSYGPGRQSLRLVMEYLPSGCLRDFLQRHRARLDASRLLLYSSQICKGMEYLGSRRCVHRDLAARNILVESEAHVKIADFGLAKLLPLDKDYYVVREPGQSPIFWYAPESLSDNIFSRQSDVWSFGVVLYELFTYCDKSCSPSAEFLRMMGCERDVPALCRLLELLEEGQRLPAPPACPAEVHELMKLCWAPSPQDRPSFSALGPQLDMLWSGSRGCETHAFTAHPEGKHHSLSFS
The test can be described thus: JAK3 Inhibition Assay (Omnia kinase fluorescence peptide substrate assay). Conditions: averaged IC50 ranges; assay of Example D; 10 μM (Km app) or 1 mM ATP, 2.5 nM JAK3. The procedure, abridged:
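Kinase at 2.5 nM with 10 µM Omnia Y7 peptide and 10 µM (Km app) or 1 mM ATP in 25 mM HEPES pH 7.4, 10 mM MgCl2, 1 mM DTT, 0.01% Triton X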

Some results are limits rather than exact numbers.

Results on nine molecules are retold here after patent US8962596B2 (Array BioPharma Inc., priority 2010, dated 2015).

T3 sequence (O60674 whole entry): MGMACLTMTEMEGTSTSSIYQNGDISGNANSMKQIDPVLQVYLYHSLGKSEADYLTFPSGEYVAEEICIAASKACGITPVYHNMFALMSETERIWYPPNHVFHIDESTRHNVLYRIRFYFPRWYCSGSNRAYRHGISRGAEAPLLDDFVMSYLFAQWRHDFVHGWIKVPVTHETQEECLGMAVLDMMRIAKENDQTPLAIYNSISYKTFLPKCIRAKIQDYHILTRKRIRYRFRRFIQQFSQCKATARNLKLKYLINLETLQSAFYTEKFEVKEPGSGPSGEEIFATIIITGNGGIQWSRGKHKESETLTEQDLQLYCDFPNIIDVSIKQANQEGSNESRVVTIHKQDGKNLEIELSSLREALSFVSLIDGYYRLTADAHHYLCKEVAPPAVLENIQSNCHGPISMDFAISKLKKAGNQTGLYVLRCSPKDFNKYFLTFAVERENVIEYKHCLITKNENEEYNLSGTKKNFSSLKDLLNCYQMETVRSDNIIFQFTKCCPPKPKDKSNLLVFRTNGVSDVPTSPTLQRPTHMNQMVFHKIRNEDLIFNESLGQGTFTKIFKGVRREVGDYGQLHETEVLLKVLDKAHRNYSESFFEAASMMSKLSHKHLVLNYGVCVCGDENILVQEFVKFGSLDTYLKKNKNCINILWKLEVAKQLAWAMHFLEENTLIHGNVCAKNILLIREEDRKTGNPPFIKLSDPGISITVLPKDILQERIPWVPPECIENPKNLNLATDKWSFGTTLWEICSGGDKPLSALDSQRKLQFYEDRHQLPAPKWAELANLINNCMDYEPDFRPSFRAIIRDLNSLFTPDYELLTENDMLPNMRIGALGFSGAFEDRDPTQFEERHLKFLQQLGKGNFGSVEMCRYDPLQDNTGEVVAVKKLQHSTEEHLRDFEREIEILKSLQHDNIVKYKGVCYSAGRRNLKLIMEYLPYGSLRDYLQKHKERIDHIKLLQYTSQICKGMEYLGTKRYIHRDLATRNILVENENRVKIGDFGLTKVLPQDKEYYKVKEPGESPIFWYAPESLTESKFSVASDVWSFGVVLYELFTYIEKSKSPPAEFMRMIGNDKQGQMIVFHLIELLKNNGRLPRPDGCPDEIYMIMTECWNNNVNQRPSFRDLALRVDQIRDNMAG
T2 sequence (P23458 whole entry): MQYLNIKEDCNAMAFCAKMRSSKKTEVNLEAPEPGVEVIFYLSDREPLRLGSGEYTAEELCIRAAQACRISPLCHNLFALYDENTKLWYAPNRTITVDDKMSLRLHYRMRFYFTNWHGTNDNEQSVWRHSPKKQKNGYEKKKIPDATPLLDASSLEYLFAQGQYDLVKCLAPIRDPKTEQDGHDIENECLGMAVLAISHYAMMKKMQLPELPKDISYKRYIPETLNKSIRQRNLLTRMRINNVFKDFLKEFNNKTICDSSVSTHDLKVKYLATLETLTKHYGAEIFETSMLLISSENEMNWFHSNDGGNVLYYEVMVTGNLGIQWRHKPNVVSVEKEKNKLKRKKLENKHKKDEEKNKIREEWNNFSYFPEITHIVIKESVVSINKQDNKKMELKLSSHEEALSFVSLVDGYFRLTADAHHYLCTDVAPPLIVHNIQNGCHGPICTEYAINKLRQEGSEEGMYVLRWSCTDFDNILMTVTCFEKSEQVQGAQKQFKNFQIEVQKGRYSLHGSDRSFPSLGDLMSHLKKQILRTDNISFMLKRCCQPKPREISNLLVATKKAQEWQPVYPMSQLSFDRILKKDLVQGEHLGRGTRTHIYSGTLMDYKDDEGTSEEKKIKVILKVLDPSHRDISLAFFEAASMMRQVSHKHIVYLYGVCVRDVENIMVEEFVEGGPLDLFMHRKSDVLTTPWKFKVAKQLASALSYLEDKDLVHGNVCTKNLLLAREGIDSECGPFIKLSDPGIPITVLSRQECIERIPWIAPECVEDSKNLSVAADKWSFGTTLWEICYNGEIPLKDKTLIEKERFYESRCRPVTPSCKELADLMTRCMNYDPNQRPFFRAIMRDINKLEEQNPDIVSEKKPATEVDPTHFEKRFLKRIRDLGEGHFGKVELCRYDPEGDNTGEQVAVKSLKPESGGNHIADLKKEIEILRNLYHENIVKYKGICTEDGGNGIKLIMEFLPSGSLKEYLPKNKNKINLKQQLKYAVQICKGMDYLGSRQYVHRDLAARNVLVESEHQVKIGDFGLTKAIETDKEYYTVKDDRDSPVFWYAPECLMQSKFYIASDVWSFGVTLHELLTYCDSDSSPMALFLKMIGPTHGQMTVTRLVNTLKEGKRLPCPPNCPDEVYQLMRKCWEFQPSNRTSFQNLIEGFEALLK

As for `CC(C)n1cc(-c2cc3nccn3c(-c3cnn(C4(CC#N)CN(CC(F)(F)F)C4)c3)n2)cn1` [Example 100, 2-(3-(4-(7-(1-Isopropyl-1-H-pyrazol-4-yl)imidazo[1,2-c]pyrimidin-5-yl)-1H-pyrazol-1-yl)-1-(2,2,2-trifluoroethyl)azetidin-3-yl)acetonitrile], the IC50 in test [1] was < 10 nM; in test [2] it was 100 to 1000 nM; in test [3] it was 10 to 100 nM; in test [4] it was > 1000 nM.
With `Cn1cc(-c2cc3nccn3c(-c3cnn(C4(CC#N)CN(C(=O)OC(C)(C)C)C4)c3)n2)cn1` [Example 61, Tert-butyl 3-(cyanomethyl)-3-(4-(7-(1-methyl-1H-pyrazol-4-yl)imidazo[1,2-c]pyrimidin-5-yl)-1H-pyrazol-1-yl)azetidine-1-carboxylate], the half-inhibitory concentration (IC50) in test [1] was 100 to 1000 nM; in test [2], > 1000 nM; in test [3] it was 100 to 1000 nM; in test [4], > 1000 nM.
Regarding `Cn1cc(-c2cc3nccn3c(-c3cnn(C4(CC#N)CN(CC5CC5)C4)c3)n2)cn1` [Example 84, 2-(1-(cyclopropylmethyl)-3-(4-(7-(1-methyl-1H-pyrazol-4-yl)imidazo[1,2-c]pyrimidin-5-yl)-1H-pyrazol-1-yl)azetidin-3-yl)acetonitrile], the IC50 in test [1] was < 10 nM; in test [2], 100 to 1000 nM; in test [3] it was 10 to 100 nM; in test [4] it was > 1000 nM.
With `Cn1cc(-c2cc3nccn3c(-c3cnn(C(CC#N)c4cccc(Cl)c4)c3)n2)cn1` (stereo not drawn) [Example 13, 3-(3-chlorophenyl)-3-(4-(7-(1-methyl-1H-pyrazol-4-yl)imidazo[1,2-c]pyrimidin-5-yl)-1H-pyrazol-1-yl)propanenitrile], the IC50 in test [1] is < 10 nM; in test [2], 10 to 100 nM; in test [3] it was < 10 nM; in test [4] it was 100 to 1000 nM.
Turning to `Cc1ncc(-c2cc3nccn3c(-c3cnn(C4(CC#N)CN(S(=O)(=O)C5CC5)C4)c3)n2)s1` [Example 140, 2-(1-(cyclopropylsulfonyl)-3-(4-(7-(2-methylthiazol-5-yl)imidazo[1,2-c]pyrimidin-5-yl)-1H-pyrazol-1-yl)azetidin-3-yl)acetonitrile], the concentration for half-maximal inhibition (IC50) in test [1] is < 10 nM; in test [2], 10 to 100 nM; in test [3], 10 to 100 nM; in test [4] it was > 1000 nM.
For the molecule `N#CCCn1cc(-c2nc(-c3ccc(N4CCOCC4)cc3)cc3nccn23)cn1` [Example 120, 3-(4-(7-(4-morpholinophen-yl)imidazo[1,2-c]pyrimidin-5-yl)-1H-pyrazol-1-yl)propanenitrile], the concentration for half-maximal inhibition (IC50) was < 10 nM in test [1], 10 to 100 nM in test [2], 10 to 100 nM in test [3] and > 1000 nM in test [4].
In the case of `Cn1cc(-c2cc3nccn3c(-c3cnn(C(CC#N)c4ccncc4)c3)n2)cn1` (stereo not drawn) [Example 8, 3-(4-(7-(1-methyl-1H-pyrazol-4-yl)imidazo[1,2-c]pyrimidin-5-yl)-1H-pyrazol-1-yl)-3-(pyridin-4-yl)propanenitrile], the IC50 in test [1] was 10 to 100 nM; in test [2], 100 to 1000 nM; in test [3] it was 10 to 100 nM; in test [4], > 1000 nM.
As to `Cc1nn(C(CC#N)C2CC2)cc1-c1nc(-c2cnn(C)c2)cc2nccn12` (stereo not drawn) [Example 109, 3-Cyclopropyl-3-(3-methyl-4-(7-(1-methyl-1H-pyrazol-4-yl)imidazo[1,2-c]pyrimidin-5-yl)-1H-pyrazol-1-yl)propanenitrile], the half-maximal inhibitory concentration (IC50) is 10 to 100 nM in test [1], > 1000 nM in test [2], 100 to 1000 nM in test [3] and > 1000 nM in test [4].
On to `N#CCC1(n2cc(-c3nc(C4CC4)cc4nccn34)cn2)CN(CC(F)(F)F)C1` [Example 149, 2-(3-(4-(7-cyclopropylimidazo[1,2-c]pyrimidin-5-yl)-1H-pyrazol-1-yl)-1-(2,2,2-trifluoroethyl)azetidin-3-yl)acetonitrile], for which the IC50 in test [1] was 100 to 1000 nM; in test [2], > 1000 nM; in test [3] it was > 1000 nM; in test [4], > 1000 nM.

The IC50 is the concentration needed to halve the response being measured.
